Laboratory results from ChEMBL document CHEMBL1142309, “The discovery of GSK221149A: a potent and selective oxytocin antagonist” (Bioorg Med Chem Lett, 2008).
Converted amounts (≈) assume the structure as drawn. Where a SMILES comes first, the peptide text is derived from it. Bridges are numbered along the chain shown (N, C = ends). [ ]: non-standard residue; d: D form. Orn = NCCC[C@H](N)C(=O)O; Mpa = O=C(O)CCS

How the values were obtained:
[1] = target: Vasopressin V1a receptor (Homo sapiens, UniProt P37288); experiment: Binding affinity to human vasopressin V1a receptor
Vasopressin V1a receptor, sequence (P37288 whole entry): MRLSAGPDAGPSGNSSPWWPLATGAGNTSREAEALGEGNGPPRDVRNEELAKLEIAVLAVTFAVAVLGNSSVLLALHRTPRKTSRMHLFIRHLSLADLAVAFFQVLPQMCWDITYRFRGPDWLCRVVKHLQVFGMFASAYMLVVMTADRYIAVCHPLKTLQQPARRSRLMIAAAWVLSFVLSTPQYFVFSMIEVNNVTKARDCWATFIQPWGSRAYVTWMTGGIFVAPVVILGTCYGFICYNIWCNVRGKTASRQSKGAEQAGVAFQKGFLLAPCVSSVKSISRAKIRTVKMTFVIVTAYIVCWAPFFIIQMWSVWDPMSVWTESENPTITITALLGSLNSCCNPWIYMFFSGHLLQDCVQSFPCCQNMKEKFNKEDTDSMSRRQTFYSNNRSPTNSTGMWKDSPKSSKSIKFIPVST

[2] = target: Vasopressin V2 receptor (Homo sapiens, UniProt P30518); experiment: Binding affinity to human vasopressin V2 receptor
Vasopressin V2 receptor, sequence (P30518 whole entry): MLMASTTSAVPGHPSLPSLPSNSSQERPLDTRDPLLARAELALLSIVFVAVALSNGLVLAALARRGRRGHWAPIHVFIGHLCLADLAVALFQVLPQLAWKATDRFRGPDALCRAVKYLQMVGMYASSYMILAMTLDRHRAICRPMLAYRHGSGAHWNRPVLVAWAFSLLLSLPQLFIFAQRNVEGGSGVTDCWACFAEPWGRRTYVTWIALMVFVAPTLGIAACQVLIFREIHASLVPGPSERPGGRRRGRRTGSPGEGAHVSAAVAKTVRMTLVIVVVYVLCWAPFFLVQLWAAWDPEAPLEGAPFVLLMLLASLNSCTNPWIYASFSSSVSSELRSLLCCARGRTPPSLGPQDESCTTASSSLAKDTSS

[3] = target: Oxytocin receptor (Rattus norvegicus) (UniProt P70536); experiment: Binding affinity to recombinant oxytocin receptor
Oxytocin receptor (Rattus norvegicus), sequence (P70536 whole entry, looked up): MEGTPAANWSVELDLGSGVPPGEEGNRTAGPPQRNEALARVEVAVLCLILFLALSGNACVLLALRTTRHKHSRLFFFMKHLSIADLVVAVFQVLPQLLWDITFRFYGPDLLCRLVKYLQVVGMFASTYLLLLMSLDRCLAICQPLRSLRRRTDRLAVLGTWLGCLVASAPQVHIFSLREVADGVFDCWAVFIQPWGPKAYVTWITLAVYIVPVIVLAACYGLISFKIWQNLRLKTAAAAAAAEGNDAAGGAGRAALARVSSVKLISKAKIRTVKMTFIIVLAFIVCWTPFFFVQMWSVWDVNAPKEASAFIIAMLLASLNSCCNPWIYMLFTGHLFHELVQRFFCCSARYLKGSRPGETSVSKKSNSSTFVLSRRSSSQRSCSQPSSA

[4] = target: T1, Oxytocin receptor (Homo sapiens, UniProt P30559); experiment: Binding affinity to human oxytocin receptor
T1 sequence (P30559 whole entry): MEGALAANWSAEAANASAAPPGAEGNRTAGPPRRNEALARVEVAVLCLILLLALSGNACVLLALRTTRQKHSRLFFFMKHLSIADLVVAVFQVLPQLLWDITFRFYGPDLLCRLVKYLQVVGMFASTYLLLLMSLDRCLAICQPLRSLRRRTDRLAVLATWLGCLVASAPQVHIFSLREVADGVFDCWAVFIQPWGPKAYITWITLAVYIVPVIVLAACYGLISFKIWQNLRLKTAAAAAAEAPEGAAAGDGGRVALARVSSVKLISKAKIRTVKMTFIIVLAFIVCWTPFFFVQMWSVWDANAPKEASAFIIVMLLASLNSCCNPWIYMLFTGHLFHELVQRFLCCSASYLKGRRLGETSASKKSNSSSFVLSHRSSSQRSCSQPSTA

[5] = target: T2, Vasopressin V1b receptor (Homo sapiens, UniProt P47901); experiment: Binding affinity to human vasopressin V1b receptor
T2 sequence (P47901 whole entry): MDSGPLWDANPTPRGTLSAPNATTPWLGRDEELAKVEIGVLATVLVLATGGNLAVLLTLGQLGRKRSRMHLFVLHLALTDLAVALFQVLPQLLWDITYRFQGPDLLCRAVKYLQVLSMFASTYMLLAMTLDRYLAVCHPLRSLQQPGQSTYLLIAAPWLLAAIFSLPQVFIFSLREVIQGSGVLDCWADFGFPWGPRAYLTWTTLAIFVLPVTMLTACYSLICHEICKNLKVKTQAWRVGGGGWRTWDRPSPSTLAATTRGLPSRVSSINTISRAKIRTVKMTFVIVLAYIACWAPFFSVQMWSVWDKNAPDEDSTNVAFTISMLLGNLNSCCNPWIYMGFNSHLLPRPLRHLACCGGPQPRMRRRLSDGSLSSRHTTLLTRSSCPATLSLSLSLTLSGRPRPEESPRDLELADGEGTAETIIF

[6] = Binding affinity to human serum albumin; type: ADME, cell-free; settings: read-out: PB (converted)
[7] = target: Cytochrome P450 3A4 (Homo sapiens, UniProt P08684); experiment: Inhibition of CYP3A4; type: ADME
Cytochrome P450 3A4, sequence (P08684 whole entry): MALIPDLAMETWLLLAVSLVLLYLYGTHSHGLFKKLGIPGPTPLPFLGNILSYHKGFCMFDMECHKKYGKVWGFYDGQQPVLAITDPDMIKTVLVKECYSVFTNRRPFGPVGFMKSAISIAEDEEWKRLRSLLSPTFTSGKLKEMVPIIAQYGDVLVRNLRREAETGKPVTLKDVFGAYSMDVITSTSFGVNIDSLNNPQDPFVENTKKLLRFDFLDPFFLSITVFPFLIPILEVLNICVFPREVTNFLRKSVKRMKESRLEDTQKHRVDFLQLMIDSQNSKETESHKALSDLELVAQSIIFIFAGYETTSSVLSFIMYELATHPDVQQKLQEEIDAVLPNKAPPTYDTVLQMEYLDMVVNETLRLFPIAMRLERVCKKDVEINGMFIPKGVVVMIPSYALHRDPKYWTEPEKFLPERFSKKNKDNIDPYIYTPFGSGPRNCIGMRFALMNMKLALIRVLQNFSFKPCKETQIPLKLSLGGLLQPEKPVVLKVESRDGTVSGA

[8] = Distribution coefficient, log D of the compound; type: physicochemical; settings: chromatographic
[9] = Aqueous solubility of the compound; type: physicochemical; settings: buffer
[10] = Half life in rat at 2 mg/kg, iv or 5 mg/kg, po; type: ADME, organism-based; settings: in vivo
[11] = Clearance in rat at 2 mg/kg, iv or 5 mg/kg, po; type: ADME, organism-based; settings: in vivo
[12] = AUC in rat at 5 mg/kg, po in HPMC/Tween formulation; type: ADME, organism-based; design: dose 5 mg/kg, route oral; settings: plasma
[13] = AUC in rat at 5 mg/kg, po in DMSO/PEG400 formulation; type: ADME, organism-based; design: dose 5 mg/kg, route oral; settings: plasma
[14] = Bioavailability in rat at 2 mg/kg, iv or 5 mg/kg, po; type: ADME, organism-based; settings: in vivo
[15] = Selectivity for human oxytocin receptor over vasopressin V1a receptor
[16] = system: Rattus norvegicus; experiment: Decrease in oxytocin-induced uterine contractions in iv dosed non-pregnant Sprague-Dawley rat; type: functional, organism-based

SMILES | Ki ([4]; read-out: Log Ki (converted)) [nM] | fraction unbound [6] | IC50 [7] [nM] | solubility [9] [µg/mL] | other results
CCOc1ccc(C[C@H]2NC(=O)CCSSC[C@@H](C(=O)N3CCC[C@H]3C(=O)N[C@@H](CCCN)C(=O)NCC(N)=O)NC(=O)[C@H](CC(N)=O)NC(=O)[C@H]([C@@H](C)O)NC(=O)[C@H]([C@@H](C)CC)NC2=O)cc1 [ATOSIBAN] ([Mpa][dY](Et)ITNCP[Orn]G-NH2; disulfide 1-6) |  |  |  |  | Ki [1]: 0.15 nM; Ki [2]: 330 nM; Ki [3]: 32 nM; Ki ([4]; read-out: Ki): 11 nM; Ki [5]: 44 nM
CC(C)C[C@@H]1C(=O)N[C@H](C2Cc3ccccc3C2)C(=O)N1[C@@H](C(=O)NC(C)C)c1cccs1 | 6.31 |  |  |  | 
CC(C)C[C@@H]1C(=O)N[C@H](C2Cc3ccccc3C2)C(=O)N1[C@@H](C(=O)NC(C)C)c1cc(Br)cs1 | 1 |  |  |  | 
Cc1nc([C@H](C(=O)N(C)C)N2C(=O)[C@@H](C3Cc4ccccc4C3)NC(=O)[C@H]2CC(C)C)c(C)o1 | 3.16 |  |  |  | 
Cc1ccc([C@H](C(=O)NC(C)C)N2C(=O)[C@@H](C3Cc4ccccc4C3)NC(=O)[C@H]2CC(C)C)o1 | 1 | 0.04 | 7000 | 34 (≈ 73 µM) | logD [8]: 3.3
Cc1nc([C@H](C(=O)N2CCOCC2)N2C(=O)[C@@H](C3Cc4ccccc4C3)NC(=O)[C@H]2CC(C)C)co1 | 2 | > 0.2 | > 100000 | > 220 | half-life [10]: 1.1 h; clearance [11]: 23 mL/min/kg; AUC [12]: 1190 ng·h/mL; AUC [13]: 3630 ng·h/mL; bioavailability [14]: 33%; Selectivity ratio [15]: > 10
CC(C)C[C@@H]1C(=O)N[C@H](C2Cc3ccccc3C2)C(=O)N1[C@@H](C(=O)NC(C)C)c1ccc(-c2ccccn2)s1 | 2.51 |  |  |  | 
CC[C@@H](C)[C@@H]1C(=O)N[C@H](C2Cc3ccccc3C2)C(=O)N1[C@@H](C(=O)N1CCOCC1)c1coc(C)n1 |  | > 0.2 | > 100000 | > 220 | half-life [10]: 1.3 h; clearance [11]: 14 mL/min/kg; AUC [13]: 4200 ng·h/mL; bioavailability [14]: 69%
CC[C@H](C)[C@@H]1C(=O)N[C@H](C2Cc3ccccc3C2)C(=O)N1[C@@H](C(=O)N1CCOCC1)c1coc(C)n1 [RETOSIBAN] |  | > 0.2 | > 100000 | > 220 | half-life [10]: 1.4 h; clearance [11]: 19 mL/min/kg; Ki [1]: > 12000 nM; IC50 [16]: 180 nM; ED50 ([16]; iv, read-out: ID50 (the source's name)): 0.27 mg/kg; AUC [12]: 1800 ng·h/mL; AUC [13]: 5470 ng·h/mL; bioavailability [14]: 100%; Ki [2]: 950 nM; Ki [5]: > 10000 nM
CNC(=O)c1ccc([C@H](C(=O)NC(C)C)N2C(=O)[C@@H](C3Cc4ccccc4C3)NC(=O)[C@H]2CC(C)C)o1 | 39.8 |  |  |  | 
CC(C)C[C@@H]1C(=O)N[C@H](C2Cc3ccccc3C2)C(=O)N1[C@@H](C(=O)NC(C)C)c1coc(C(F)(F)F)n1 | 0.158 |  |  |  | 
Cc1cc([C@H](C(=O)NC(C)C)N2C(=O)[C@@H](C3Cc4ccccc4C3)NC(=O)[C@H]2CC(C)C)oc1C | 1.26 |  |  |  | 
Cc1nc([C@H](C(=O)N(C)CCO)N2C(=O)[C@@H](C3Cc4ccccc4C3)NC(=O)[C@H]2CC(C)C)co1 | 1.26 | > 0.2 | > 100000 | > 220 | AUC [13]: 218 ng·h/mL; Selectivity ratio [15]: > 10
Cc1nc([C@H](C(=O)NC(C)C)N2C(=O)[C@@H](C3Cc4ccccc4C3)NC(=O)[C@H]2CC(C)C)co1 | 1.26 | 0.37 | > 100000 | > 240 | AUC [13]: 225 ng·h/mL; logD [8]: 2.5; Selectivity ratio [15]: > 10
CC(C)C[C@@H]1C(=O)N[C@H](C2Cc3ccccc3C2)C(=O)N1[C@@H](C(=O)NC(C)(C)C)c1ccoc1 | 12.6 |  |  |  | 
Cc1nc([C@H](C(=O)N2CCC2)N2C(=O)[C@@H](C3Cc4ccccc4C3)NC(=O)[C@H]2CC(C)C)co1 | 1.58 | > 0.2 | > 100000 | > 220 | half-life [10]: 1.4 h; clearance [11]: 35 mL/min/kg; AUC [13]: 1070 ng·h/mL; bioavailability [14]: 45%; Selectivity ratio [15]: > 10
CC(C)C[C@@H]1C(=O)N[C@H](C2Cc3ccccc3C2)C(=O)N1[C@@H](C(=O)NC(C)C)c1ccc(C(F)(F)F)o1 | 0.1 | 0.03 | 3000 | < 1 | logD [8]: 3.6
Cc1nc([C@H](C(=O)N(C)C)N2C(=O)[C@@H](C3Cc4ccccc4C3)NC(=O)[C@H]2CC(C)C)cs1 | 0.398 |  |  |  | 
CC(C)C[C@@H]1C(=O)N[C@H](C2Cc3ccccc3C2)C(=O)N1[C@@H](C(=O)NC(C)C)c1ccco1 | 6.31 |  |  |  | 
CC(C)C[C@@H]1C(=O)N[C@H](C2Cc3ccccc3C2)C(=O)N1[C@@H](C(=O)NC(C)C)c1ccc(Br)o1 | 0.794 |  |  |  | 
CC(C)C[C@@H]1C(=O)N[C@H](C2Cc3ccccc3C2)C(=O)N1[C@@H](C(=O)NC(C)C)c1ccc(F)cc1F |  | 0.07 | 4000 | < 1 | logD [8]: 3.4
CC(C)C[C@@H]1C(=O)N[C@H](C2Cc3ccccc3C2)C(=O)N1[C@@H](C(=O)NC(C)C)c1ccc(Br)s1 | 2 | 0.01 | 1000 | < 1 | logD [8]: 3.7
CC(C)C[C@@H]1C(=O)N[C@H](C2Cc3ccccc3C2)C(=O)N1[C@@H](C(=O)N(C)C)c1coc(C2CC2)n1 | 0.794 |  |  |  | 
